These results are taken from PMC7913291, “Synthesis and Anti-Hepatocarcinoma Effect of Amino Acid Derivatives of Pyxinol and Ocotillol” (Molecules, 2021).

One series deals with HepG2 cells. As to the kind of experiment: Cytotoxic activity on HepG2 cells (CCK-8 assay). The class given is cell-based. As to conditions: Homo sapiens, read-out: IC50 over HepG2 cells. Here is the method: Human hepatocellular liver carcinoma cell line (HepG2) were obtained from Institute of Biochemistry and Cell Biology, Academy of Science (Shanghai, China) and were authenticated using the STR profiling method. HepG2 cells were cultured in MDEM (Gibco, Waltham, MA, USA) supplemented with 10% fetal bovine serum (FBS) and 1% penicillin-streptomycin bubbled with 5% CO2-enriched air at a temperature of 37 °C (Thermo Scientific, Waltham, MA, USA). The cytotoxic effect of compounds on HepG2 cells was assessed by using CCK-8 method. Briefly, HepG2 cells were cultured in 96-well plates at a density of 5 × 10^3 cells per well for 24 h. […] Three replicates were performed. The relative cell viability was expressed as percentage relative to the untreated cells. The inhibition ratio was calculated. The IC50 values were calculated using Logistic regression from three independent tests.

The next series has as its system H22 transplanted tumor. As to the kind of experiment: Antitumor activity in H22 tumor-bearing mice (tumor weight, volume, inhibition rate, tumor histology). The class given is in vivo, Kunming mice. As to the method: Hepatocellular carcinoma cell line (H22) was purchased from the Cell Bank of Type Culture Collection Committee of Chinese Academy of Sciences (Shanghai, China), and cultured in Dulbecco's modified eagle medium supplemented with 10% fetal calf serum and then cultured at 37 °C in 5% CO2. […] (Changchun, China). All the mice, given food and water ad libitum, were raised in temperature and humidity controlled (23 ± 2 °C, 50 ± 10% humidity) environment under a 12 h light/dark cycle. The mice were acclimatized for at least 1 week before use. The animal experiments were performed in accordance with the guidelines for the Care and Use of Laboratory Animals and approved by the ethics committee of School of Pharmaceutical Sciences, Jilin University, China. H22 cells, resuspended in normal saline with final concentration of 5 × 10^6 cells/mL, were injected into the abdominal cavity of mice under aseptic conditions. After 1 week, ascites tumor cells were extracted and dispersed with physiological saline to a concentration of 1 × 10^7 cells/mL.

The test system of a further series is TNF-α. Nature of the series: Serum TNF-α level in H22 tumor-bearing mice. The class given is in vivo, Kunming mice. The following applies: mean ± SD. Here is the method:
(§1) Cyclophosphamide (CTX), used as the positive drug, was purchased from Sigma (St. Lousis, MO, USA. Detecting kits for IL-2, TNF-α, VEGF, AST, ALT, CRE and BUN were purchased from Nanjing Jiancheng Biotechnology Co. (Nanjing, China).
(§2) 24 h after the last administration, the whole blood was collected from the orbit. Serum was obtained from whole blood by centrifugation (3500 rpm, 15 min, 4 °C) and stored at −20 °C. The levels of IL-2, TNF-α, VEGF, AST, ALT, BUN and CRE in serum were determined in accordance with the procedures described in commercial kit instructions.

A further series deals with IL-2. As to the kind of experiment: Serum IL-2 level in H22 tumor-bearing mice. The class given is in vivo, Kunming mice. The following applies: mean ± SD. As to the method: as §1, §2
The next series deals with VEGF. As to the kind of experiment: Serum VEGF level in H22 tumor-bearing mice. The class given is in vivo, Kunming mice. The following applies: mean ± SD. As to the method: as §1, §2
The nature of series [1]: Hepatic and renal function (serum ALT, AST, CRE, BUN) in H22 tumor-bearing mice. Here is the method:
as §1, §2

The nature of series [2]: Body weight and organ indexes in H22 tumor-bearing mice. Here is the method: Before administration every day, the tumor size and body weight were measured. When the tumor was larger than 20 mm in diameter, animals were euthanized according to the IACUC proposals.
(§3) Mice were then killed by cervical dislocation after blood collected. The tumor, liver and kidney were rapidly separated, weighted and dissected for histopathological examination.
The liver and kidney indexes were calculated as follows: organ index (mg/g) =average weight of organ/average body weight.

A short description of series [3]: Histopathological examination of liver and kidney (H&E staining). The following applies: H22 tumor-bearing mice; CTX 20 mg/kg. Here is the method:
as §3
The tissue of tumor, liver and kidney from each mouse was quickly fixed in 10% neutral-buffered formalin for histopathology. The H&E staining of H22 solid tumor, liver and kidney tissue were embedded in paraffin and sectioned into sections with a thickness of 5 µm which were conducted following the manufacturer’s instructions in respective kit. Tumor, liver and kidney tissue sections were observed by light microscopy (Leica DM750, Solms, Germany) and recorded by photography (×400).

For series [4] the following is noted: rat, in vivo; cited from earlier work.
For series [5] the following is noted: cited from earlier work.
[6] abbreviates: HepG2, CCK-8, 48 h, mean of three experiments ±SD.
Where [7] appears, read: 25 mg/kg intragastrically once a day for 14 days.
[8] abbreviates: 50 mg/kg intragastrically once a day for 14 days.
[9] abbreviates: 20 mg/kg intragastrically once a day for 14 days.
The mark [10] stands for this setting: serum, H22 tumor-bearing mice, 20 mg/kg.

Where two headings read alike, the source gives them in different places.

As for `CC(C)(O)[C@H]1CC[C@@](C)(C2CC[C@]3(C)C2[C@H](O)CC2[C@@]4(C)CC[C@H](OC(=O)C5CCCN5)C(C)(C)C4CC[C@]23C)O1` (stereo partly drawn) [2e, (20S, 24R)-Epoxy-3β-O-(L-prolyl)-dammarane-12β, 25-diol], the IC50 in the series with HepG2 cells (setting [6]) came to 11.3 ± 0.43 µM. In addition, the “Inhibitory Rate (tumor inhibition rate, TIR)” value is 16.20% in the series on H22 transplanted tumor (setting [7]); 24.76% in the series on H22 transplanted tumor (setting [8]); 35.32% in the series on H22 transplanted tumor (100 mg/kg intragastrically once a day for 14 days, listed as Compound 2e, 100 mg/kg); 35.32% in the series on H22 transplanted tumor (100 mg/kg intragastrically once a day for 14 days, listed as compound 2e, 100 mg/kg). Moreover, the results for the “Tumor Weight” value with H22 transplanted tumor (setting [7]), in the series on H22 transplanted tumor (setting [8]) and with H22 transplanted tumor (100 mg/kg intragastrically once a day for 14 days) were 1.35 ± 0.26 g, 1.21 ± 0.34 g and 1.04 ± 0.23 g, respectively. The “Effect on tumor volume compared to the model group” value with H22 transplanted tumor (50, 100 mg/kg, p < 0.05, p < 0.01) is given as “significantly reduce”. Also, the TNF-α level with TNF-α (n = 6, 25 mg/kg) was found to be 287.01 ± 39.10 pg/mL; in the series with TNF-α (n = 6, 50 mg/kg), 321.97 ± 55.57 pg/mL; in the series with TNF-α (n = 6, 100 mg/kg), 358.35 ± 45.19 pg/mL. The IL-2 level with IL-2 (n = 6, 25 mg/kg) was determined as 111.13 ± 13.28 pg/mL; with IL-2 (n = 6, 50 mg/kg), 136.86 ± 22.66 pg/mL; in the series with IL-2 (n = 6, 100 mg/kg), 174.11 ± 28.90 pg/mL. Besides, the VEGF level with VEGF (n = 6, 25 mg/kg) is 158.32 ± 15.97 ^##, * pg/mL; in the series with VEGF (n = 6, 50 mg/kg) it was 127.62 ± 17.46 ^##, ** pg/mL; in the series on VEGF (n = 6, 100 mg/kg) it was 114.67 ± 15.42 pg/mL. For the same compound, the ALT is 43.62 ± 5.15 ^##, ** IU/L in series [1] (mouse, in vivo, 25 mg/kg); 42.31 ± 5.00 ^##, ** IU/L in series [1] (mouse, in vivo, 50 mg/kg); 35.37 ± 3.32 ^##, ** IU/L in [1] (mouse, in vivo, 100 mg/kg). Besides, the AST in series [1] (mouse, in vivo, 25 mg/kg) is reported as 42.51 ± 5.22 ^##, ** IU/L; in series [1] (mouse, in vivo, 50 mg/kg), 38.69 ± 6.43 ^##, ** IU/L; in series [1] (mouse, in vivo, 100 mg/kg), 31.47 ± 4.48 ^#, ** IU/L. In addition, the CRE in series [1] (mouse, in vivo, 25 mg/kg) came out at 31.17 ± 9.03 µmol/L; in [1] (mouse, in vivo, 50 mg/kg) it was 28.95 ± 9.16 µmol/L; in series [1] (mouse, in vivo, 100 mg/kg) it was 26.93 ± 10.60 µmol/L. In addition, the BUN was 11.06 ± 2.16 mmol/L in series [1] (mouse, in vivo, 50 mg/kg) and 10.32 ± 2.77 mmol/L in [1] (mouse, in vivo, 100 mg/kg).
As to `O=P1(N(CCCl)CCCl)NCCCO1` (stereo not drawn) [Cyclophosphamide, reference compound], in the series on HepG2 cells (HepG2, 48 h), the IC50 is 9.18 ± 0.34 µM. In the series with H22 transplanted tumor (setting [9]), the “Inhibitory Rate (tumor inhibition rate, TIR)” value worked out at 49.69% and the “Tumor Weight” value was 0.81 ± 0.18 g. Moreover, the “Effect on tumor volume compared to the model group” value with H22 transplanted tumor (CTX 20 mg/kg, p < 0.01) was “significantly reduce”. Further, in series [2] (setting [9]), the “Body weight D14” value was found to be 32.76 ± 3.14 g, the “Increase of Body Weight” value is on record as 11.56 ± 3.23 g, the “Kidney Index” value is listed as 13.27 ± 1.96 mg/g and the “Liver Index” value amounted to 51.54 ± 7.69 mg/g. In addition, the “Body weight D1” value in series [2] (D1, 20 mg/kg group) was 21.20 ± 1.71 g. Besides, the TNF-α level in the series on TNF-α (n = 6, 20 mg/kg) was 207.47 ± 23.37 ^##, ** pg/mL. Besides, the IL-2 level in the series on IL-2 (n = 6, 20 mg/kg) was 110.52 ± 17.54 pg/mL. The VEGF level with VEGF (n = 6, 20 mg/kg) came out at 103.43 ± 14.00 pg/mL. Further, in series [1] (setting [10]), the ALT is reported as 50.61 ± 3.22 ^##, ** IU/L; the AST is 53.47 ± 5.04 ^##, ** IU/L; the BUN is given as 14.23 ± 2.38 ^##, * mmol/L; the CRE is 32.86 ± 7.74 µmol/L. Besides, in series [3], the “Liver and kidney cell morphology (H&E)” value is “many vacuoles and edema”.
Turning to `CC(C)(O)C1CCC(C)(C2CCC3(C)C2C(O)CC2C4(C)CCC(O)C(C)(C)C4C(O)CC23C)O1` (stereo not drawn) [Ocotillol], in the series with HepG2 cells (setting [6]), the IC50 amounted to 92.7 ± 3.07 µM. In [4], the absorption into blood result was “poor”, the systemic exposure entry is recorded as “low” and the t1/2 result is recorded as “long”. Further, the “plasma protein binding rates” value in series [5] is “high”.
